In paper PMC6686011, “Ruthenium(II) complexes with 6-methyl-2-thiouracil selectively reduce cell proliferation, cause DNA double-strand break and trigger caspase-mediated apoptosis through JNK/p38 pathways in human acute promyelocytic leukemia cells” (Scientific Reports, 2019):

Tests used:
[1] = system: BAD KO SV40 MEF (immortalized mouse embryonic fibroblast with the BAD gene knocked out); assay: Cytotoxicity, alamar blue assay; assay type: cell-based; conditions: Mus musculus, MEF, 72 h, read-out: IC50, BAD KO SV40 MEF cell line
Experimental: (§1) Cytotoxicity was measured using alamar blue assay and was performed following the procedure that was described previously[21],[22]. Briefly, cells were inserted in 96-well plates and incubated overnight. Then, the complexes were dissolved in dimethyl sulfoxide (DMSO, LGC Biotechnology, São Paulo, SP, Brazil) and added to each well and incubated for 72 h. […] Before the end of treatment (4 h for cell lines and 24 h for PBMC), 20 μL of a stock solution (0.312 mg/mL) of alamar blue (resazurin, Sigma-Aldrich Co.) were added to each well. Absorbance at 570 nm and 600 nm was measured using SpectraMax 190 Microplate Reader (Molecular Devices, Sunnyvale, CA, USA).

[2] = system: HL-60 (human acute promyelocytic leukemia); assay: Cytotoxicity, alamar blue assay; assay type: cell-based; conditions: Homo sapiens, HL-60; alamar blue, 72 h; read-out: IC50 and 95% CI, HL-60
Experimental: as §1

[3] = system: SCC-4 (human oral squamous cell carcinoma); assay: Cytotoxicity, alamar blue assay; assay type: cell-based; conditions: Homo sapiens, SCC-4; alamar blue, 72 h; read-out: IC50 and 95% CI, SCC-4
Experimental: as §1

[4] = system: WT SV40 MEF (wild-type immortalized mouse embryonic fibroblasts); assay: Cytotoxicity, alamar blue assay; assay type: cell-based; conditions: Mus musculus, MEF, 72 h, read-out: IC50, WT SV40 MEF cell line
Experimental: as §1

[5] = system: PBMC (human peripheral blood mononuclear cells); assay: Cytotoxicity, alamar blue assay; assay type: cell-based; conditions: Homo sapiens, PBMC, non-cancer cells, 72 h, read-out: IC50 and 95% CI, PBMC
Description: HL-60 (human acute promyelocytic leukemia), K-562 (human chronic myelogenous leukemia), HCT116 (human colon carcinoma), HepG2 (human hepatocellular carcinoma), HSC-3 (human oral squamous cell carcinoma), SCC-9 (human oral squamous cell carcinoma), B16-F10 (mouse melanoma), MRC-5 (human lung fibroblast), WT SV40 MEF (wild-type immortalized mouse embryonic fibroblast) and BAD KO SV40 MEF (BAD gene knockout immortalized mouse embryonic fibroblast) cell lines were obtained from American Type Culture Collection (ATCC, Manassas, VA, USA). Human peripheral blood mononuclear cells (PBMC) were isolated using standard Ficoll density gradient from heparinized blood collected from 20- to 35-year-old, non-smoker healthy donors with informed consent (number 031019/2013) approved by Human Ethics Committee of Gonçalo Moniz Institute from Oswaldo Cruz Foundation (IGM-FIOCRUZ/BA), and all experiments were performed in accordance with relevant guidelines and regulations. Cells were cultured as recommended by ATCC guidelines and a mycoplasma stain kit (Sigma-Aldrich) was used to validate the use of cells free from contamination. Cell viability in all experiments was examined using the trypan blue exclusion (TBE) assay. Over 90% of the cells were viable at the beginning of the culture.
as §1

HL-60 cells [6] = assay: Trypan blue exclusion assay; assay type: cell-based, human; conditions: HL-60, 24 h, 1 μM
Experimental: The number of viable cells and non-viable (take up trypan blue) were counted by TBE method. Shortly, 90 μL was removed from the cell suspension and 10 μL of trypan blue (0.4%) was added. Cell counting was performed using a light microscope with a neubauer chamber.

HL-60 cells [7] = assay: Morphological analysis (May-Grunwald-Giemsa staining, light scattering); assay type: cell-based, human; conditions: HL-60, 12 and 24 h; DOX 1 µM
Experimental: To cell morphology evaluation, slides were prepared using cytospin and stained with May-Grunwald-Giemsa. Morphological changes were assessed by light microscopy (Olympus BX41, Tokyo, Japan) using Image-Pro software (Media Cybernetics, Inc. Silver Spring, USA). Light scattering features were determined by flow cytometry. At least 10^4 events were recorded per sample using a BD LSRFortessa cytometer along with BD FACSDiva Software (BD Biosciences, San Jose, CA, USA) and Flowjo Software 10 (Flowjo LCC, Ashland, OR, USA). Cellular debris was omitted from the analysis.

HL-60 cells [8] = assay: Apoptosis quantification, annexin V-FITC/PI flow cytometry; assay type: cell-based, human
Experimental: Shortly, cells were washed twice with saline solution and resuspended in 100 μL of binding buffer plus 5 μL of propidium iodide (PI) and 5 μL of FITC Annexin V. Then, cells were gently mixed by vortexing and incubated for 15 min at room temperature in the dark. Finally, 400 μL of binding buffer was added to each tube, and the cell fluorescence was determined by flow cytometry, as described above. Percentage of viable, early apoptotic, late apoptotic and necrotic cells were measured. […] Cells were then analyzed by FITC Annexin V Apoptosis Detection assay as described above.

HL-60 cells [9] = assay: Mitochondrial transmembrane potential, rhodamine 123; assay type: cell-based, human; conditions: HL-60, 24 h; DOX 1 µM
Experimental: Mitochondrial transmembrane potential was determined by retention of dye rhodamine 123 as described previously. Briefly, cells were incubated with rhodamine 123 (5 μg/mL, Sigma-Aldrich Co.) at room temperature for 15 min in dark and washed with saline solution. Cells were incubated again in saline solution for more 30 min in dark and cell fluorescence was determined by flow cytometry as described above.

HL-60 cell xenografts = assay: Human myeloid leukemia xenograft model; assay type: in vivo, C.B-17 SCID mice; conditions: 0.1 mg/kg intraperitoneal once a day for 13 consecutive days
Experimental: Fifty six specific-pathogen-free (SPF) C.B-17 severe combined immunodeficient (SCID) mice (females, 23–26 g) were used in this study. The animals were obtained and maintained at animal facilities from Gonçalo Moniz Institute-FIOCRUZ (Salvador, Bahia, Brazil), and housed in cages with free access to food and water, and kept under a 12:12 h light-dark cycle (lights on at 6:00 a.m.). The animals were treated according to ethical principles for animal experimentation of SBCAL (Brazilian Association of Laboratory Animal Science), Brazil. Experimental protocol have been approved (number 06/2015) by Animal Ethics Committee of Gonçalo Moniz Institute-FIOCRUZ (Salvador, Bahia, Brazil).
Human myeloid leukemia xenograft model was carry out as described previously by Rodrigues et al.[26] with minor modifications. HL-60 cells (2.5 × 10^7 cells/500 µL) were implanted subcutaneously into the left front armpit of the mice. […] When the tumors reached 100 to 200 mm^3 (22 days after HL-60 cells injection), the animals were treated through the intraperitoneal route (200 µL per animal) once a day for 13 consecutive days. One day after the end of the treatment, the animals were anesthetized, and peripheral blood samples were collected from brachial artery. Animals were euthanized by anesthetic overdose, and tumors were excised and weighed.

[10] = Toxicological evaluation in xenograft mice; assay type: in vivo, C.B-17 SCID mice; conditions: doxorubicin 0.1 mg/kg
Experimental: To assess toxicological aspects, mice were weighed at the beginning and at the end of the experiment as described previously by Rodrigues et al.[26]. […] Hematological analysis was performed using the Advia 60 hematology system (Bayer, Leverkusen, Germany). Livers, kidneys, lungs and hearts were removed, weighed and examined for any signs of macroscopic lesions, color changes and/or hemorrhages. After macroscopic examination, tumors, livers, kidneys, lungs and hearts were fixed in 4% formalin buffer and embedded in paraffin. Tissue sections were stained with hematoxylin/eosin staining, and a pathologist performed the histological analyses under optical microscopy.

SMILES: COc1cccc2c1C(=O)c1c(O)c3c(c(O)c1C2=O)C[C@@](O)(C(=O)CO)C[C@@H]3O[C@H]1C[C@H](N)[C@H](O)[C@H](C)O1 [doxorubicin, reference compound]
- IC50 [1]: 410 nM
- IC50 [2]: 20 nM
- IC50 [3]: 1430 nM
- IC50 [4]: 40 nM
- IC50 [5]: 5170 nM
- Reduction of the number of viable cells (HL-60 cells [6]): reduced the number of viable cells
- Cell morphology, May-Grunwald-Giemsa staining (HL-60 cells [7]): presented changes associated with apoptosis
- Apoptotic cells, in words (HL-60 cells [8]; HL-60, 12 and 24 h, DOX 1 µM): induced apoptosis
- Apoptosis on cotreatment with pan-caspase inhibitor Z-VAD(OMe)-FMK, in words (HL-60 cells [8]; HL-60, 2 h pre-treatment 50 µM Z-VAD(OMe)-FMK, then 24 h): led to apoptosis through caspases pathways
- Mitochondrial transmembrane potential, in words (HL-60 cells [9]): induced depolarization of mitochondrial transmembrane potential
- Reduction of tumor weight (HL-60 cell xenografts): 62.0%
- Kidney histopathology ([10]; complex 1 20 and 40 mg/kg): Coagulation necrosis was observed in renal tubules
- Lung histopathology ([10]; complex 1 20 and 40 mg/kg): tumor nodules were observed only in one animal
- Body weight ([10]; mice bearing HL-60 cells, 13 days): decreased body weight
